For 22 compounds, IC50 results are on record in ChEMBL document CHEMBL3886334, “Fragment ligated inhibitors selective for the polo box domain of PLK1” (2015).

Each structure is given as a SMILES string.

For orientation: IC50 means the point on the concentration scale where inhibition reaches its midpoint.

For this assay, the target named is Serine/threonine-protein kinase PLK1 (Homo sapiens, UniProt P53350). As to the kind of experiment: Fluorescent Polarization Binding Assay: The buffer composition was 50 mM Tris, 200 mM NaCl, 2.0 mM DTT, and 0.005% Tween 20 (pH 8.0). Fragment ligated inhibitors and comparison peptides to be tested in the binding assay were dissolved in dimethyl sulfoxide (DMSO) to a concentration of 10 mM, compounds were utilized in a range of concentrations from 10 nM to 600 μM. The PLK1 PBD protein (residues ….
Serine/threonine-protein kinase PLK1, sequence (P53350 whole entry, the tested form may be a part): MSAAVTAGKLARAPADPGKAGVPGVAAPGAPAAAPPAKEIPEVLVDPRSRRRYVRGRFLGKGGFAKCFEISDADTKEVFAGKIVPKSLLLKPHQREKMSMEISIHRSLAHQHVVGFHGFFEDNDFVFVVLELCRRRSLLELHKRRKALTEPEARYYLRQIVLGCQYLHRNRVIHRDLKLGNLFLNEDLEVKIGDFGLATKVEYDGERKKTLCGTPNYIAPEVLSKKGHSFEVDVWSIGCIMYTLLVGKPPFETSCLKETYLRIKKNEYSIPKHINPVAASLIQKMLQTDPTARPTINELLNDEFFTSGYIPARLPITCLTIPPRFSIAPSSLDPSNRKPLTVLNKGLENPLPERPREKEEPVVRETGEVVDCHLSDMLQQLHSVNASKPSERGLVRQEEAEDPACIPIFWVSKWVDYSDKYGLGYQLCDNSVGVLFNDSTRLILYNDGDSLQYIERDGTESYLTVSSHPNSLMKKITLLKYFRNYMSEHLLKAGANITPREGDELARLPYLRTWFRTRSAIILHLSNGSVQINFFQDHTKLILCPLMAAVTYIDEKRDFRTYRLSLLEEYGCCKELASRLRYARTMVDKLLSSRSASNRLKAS
On to `CCCCc1ccc(C(=O)NC)cc1`, for which the IC50 stood at 8.6 µM. The compound `CNC(=O)c1cn(S(=O)(=O)c2ccccc2)c2ccccc12` yielded an IC50 of 375 µM. Regarding `CNC(=O)c1cccc2ccccc12`, the IC50 turned out to be 104 µM. The compound `CNC(=O)Cn1cc(-c2ccc(C)cc2)ncc1=O` returned a 50% inhibitory concentration (IC50) of 250 µM. The compound `CCc1ccc(C(=O)NC)cc1` showed an IC50 of 16.5 µM. Turning to `CNC(=O)c1ccc(OC)cc1`, the IC50 came to 125 µM. To `CNC(=O)c1ccc(-c2noc(C)n2)cc1` belongs 320 µM.

As for `CNC(=O)c1cc(-c2ccccc2)n(-c2ccccc2)c1C`, the IC50 was found to be 600 µM.

The compound `CNC(=O)c1ccc(NC)cc1` showed an IC50 of 31.2 µM. As to `CNC(=O)CSc1ncnc2sc(C)cc12`, the IC50 worked out at 475 µM.

`CCCNc1ccc(C(=O)NC)cc1` came in with an IC50 of 16.5 µM. On to `CNC(=O)c1cc(-c2ccccc2)c(C(F)(F)F)s1`, for which the IC50 is 500 µM. To `CCCc1ccc(C(=O)NC)cc1` belongs 10.8 µM. Regarding `CNC(=O)c1sc(C(F)(F)F)c(-c2ccccc2)c1N`, the IC50 is > 600 µM. To `CNC(=O)c1ccc2ncccc2c1` belongs 400 µM. To `CCOc1ccc(C(=O)NC)cc1` belongs 64.7 µM.

`CNC(=O)c1cc(OC)c2c(c1)OCCO2` came in with an IC50 of 300 µM. Then `CCCOc1ccc(C(=O)NC)cc1`, with 29.5 µM; and `CNC(=O)CN1C(=O)COc2ccc(C)cc21`, with 350 µM; and `CNC(=O)c1ccc(OC)c2ccccc12`, with 99 µM. To `CNC(=O)c1ccc(SC)cc1` belongs 18.5 µM; to `CNC(=O)c1cc(-c2cccc(OC)c2)n[nH]1`, 380 µM.
